Earlier results on one substance are cited in patent publication US20030143266A1, “Cationic amphiphile micellar complexes” (GENZYME CORPORATION, priority 1999, published 2003).

The test system of the series is airway epithelial cells. The conditions noted are these: shown by elevation of cGMP levels, CFTR-dependent chloride transport, ciliary beat frequency.

With “CNP-22: C-type natriuretic peptide containing 22 amino acid; binds and activates guanylate cyclase-B receptor”, the “binding to airway epithelial cells in vivo” value is “Specific binding”.
